In patent US10507247B2, “Optical probes for matrix metalloproteinases” (The University Court of the University of Edinburgh, priority 2015, dated 2019):
Primed or numbered codes have the meaning given here. Where no end group is shown, it is not given here. The star is where a group is joined. 5FAM = O=C1OC2(c3ccc(O)cc3Oc3cc(O)ccc32)c2ccc(C(=O)*)cc21; MethylRed = CN(C)c1ccc(/N=N/c2ccccc2C(=O)*)cc1; PEG2′ = PEG spacer unit (glycol linker); Ahx = NCCCCCC(=O)O

Columns and labels:
MMP-9 = assay: Enzyme assay, fold change in probe fluorescence over background with MMP-9; assay type: biochemical, human; details: for MMP-9 (39.0 kDa), fold change in fluorescence over background: FRET monomers, recombinant human catalytic domain MMP at 30 nM, ex/em 485/528 nm; for MMP-9 (83 kDa), fold change in fluorescent signal: different probe scaffolds (monomer, dendrimers)
Procedure: A library of probes (listed in Table 2 below) containing FAM (Carboxyfluorescein) as the fluorophore (donor) and MethylRed (MR) as the quencher (acceptor) and a variety of peptide sequences was synthesized by manual standard solid-phase Fmoc peptide chemistry (described below).
(§1) Enzyme specificity of the lead probes with exogenous enzymes was tested using a multiwell plate fluorimeter at excitation/emission 485/528 nm (Table 3). Recombinant human catalytic domain MMPs-1, -2, -3, -7, -8, -9, -10, -11, -12, -13 were used at 30 nM. Cleavage site for each sequence is indicated in italics.
(§2) The different compounds were also evaluated according to the fold change in fluorescent signal in presence of MMP-9 and MMP-13, and the results are shown in Table 7. From this comparison, the FRET dendrimers comprising SEQ ID NO.1 and SEQ ID NO.7 (AMF-106 and SVC-186) together with the 9Dendrimer comprising SEQ ID NO.7 (SVC-196) were chosen for further evaluation. These dendrimers are shown in FIG. 7, probe A (AMF-106), probe B (SVC-186) and probe C (SVC-196).
(§3) The enzyme assays were run in a 384-well format on a PCR opaque microplate (Thermo Scientific). All dilutions and reactions were prepared in MMP buffer (50 mM Tris, 10 mM CaCl2, 0.15M NaCl, 0.05% Brij-35, pH 7). Proteolytic activity was determined by calculating the fold change in fluorescence over background signal provided by the corresponding dilution of the probe and/or inhibitors with exogenous enzymes using a-multiwell plate fluorimeter (Synergy H1 Hybrid Reader, BioTek instruments Ltd) at excitation/emission 485/528 nm. Recombinant human MMPs (Catalytic domain MMP-1, -2, -3, -7, -8, -9, -10, -11, -12, -13 (Enzo Life Sciences) and Full-length MMP-2, -9, -12 and -13 (Merck/Millipore)) were used at 30 nM. Pro-MMP-13 (R & D Systems) was activated by incubating with 1 mM 4-aminophenylmercunc acetate (APMA) for 2 hrs at 37° C. Human neutrophil elastase (Elastase Product Company, used at 2.5 ug/ml), neutrophil lysate (lysed human neutrophils), and recombinant human Thrombin (Sigma-Aldrich, used at 5 U/ml), Plasmin (Sigma-Aldrich, used at 30 nM) and Factor Xa (Sigma-Aldrich, used at 0.5 μM) were used to identify the lead molecular probe sequences. For inhibition assays, enzyme and inhibitor were pre-incubated for 1 hr at 37° C. before the addition of molecular probe.

MMP-2 = assay: Enzyme assay, fold change in probe fluorescence over background with MMP-2; assay type: biochemical; details: FRET monomers; recombinant human catalytic domain MMP at 30 nM; ex/em 485/528 nm
Procedure: as §1, §3

MMP-12 = biological target: T1, MMP-12 (Homo sapiens, UniProt P39900); assay: Enzyme assay, fold change in probe fluorescence over background with MMP-12; assay type: biochemical; details: FRET monomers; recombinant human catalytic domain MMP at 30 nM; ex/em 485/528 nm
T1 construct: Recombinant human catalytic domain MMPs-1, -2, -3, -7, -8, -9, -10, -11, -12, -13 were used at 30 nM; purchased Enzo Life Sciences
Procedure: as §1, §3

Thrombin = biological target: T2, Thrombin (Homo sapiens, UniProt P00734); assay: Enzyme assay, fold change in probe fluorescence with Thrombin; assay type: biochemical; details: recombinant human Thrombin 5 U/ml; ex/em 485/528 nm
T2 construct: purchased Sigma-Aldrich
Procedure: as §1, §3

MMP-13 [1] = biological target: MMP-13 (Homo sapiens, UniProt P45452); assay: Enzyme assay, fold change in probe fluorescence over background with MMP-13; assay type: biochemical; set-up: purchased Enzo Life Sciences (catalytic domain); Merck/Millipore (full-length); details: FRET monomers; recombinant human catalytic domain MMP at 30 nM; ex/em 485/528 nm
Procedure: as §1, §2, §3

MMP-13 [2] = assay: as above; assay type: biochemical, human; details: different probe scaffolds (monomer, dendrimers); MMP-13 52 kDa
Procedure: as §1, §2, §3

T1 sequence (P39900 106-263 limits assumed): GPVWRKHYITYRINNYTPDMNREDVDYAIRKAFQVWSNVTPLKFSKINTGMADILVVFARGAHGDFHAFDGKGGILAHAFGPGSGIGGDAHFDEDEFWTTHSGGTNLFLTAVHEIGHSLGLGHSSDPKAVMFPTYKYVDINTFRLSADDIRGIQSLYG
Chain of MMP-2 (P08253 with tags, fused parts or gaps DEL222-396 limits assumed): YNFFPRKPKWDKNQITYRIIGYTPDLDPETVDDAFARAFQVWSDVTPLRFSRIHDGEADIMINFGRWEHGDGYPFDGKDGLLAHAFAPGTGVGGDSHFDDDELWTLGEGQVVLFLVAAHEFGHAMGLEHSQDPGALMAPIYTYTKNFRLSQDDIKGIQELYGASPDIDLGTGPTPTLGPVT

## FAM-PEG2-G-P-K-G-I-K-G-K(MR)-NH2 ({5FAM-PEG2′}-GPKGIKGK(MethylRed)-NH2) [SVC-26]
MMP-9
  MMP-9 (39.0 kDa), fold change in fluorescence over background: 4.22
MMP-2
  MMP-2 (20.3 kDa), fold change in fluorescence over background: 2.10
MMP-12
  MMP-12 (20.3 kDa), fold change in fluorescence over background: 1.54
Thrombin
  Inflammatory mediators: Thrombin, fold change in fluorescence over background: 1.37
MMP-13 [1]
  MMP-13 (20.4 kDa), fold change in fluorescence over background: 9.33

## FAM-PEG2-PFGNleKβA-PEG2-k-PEG2-k-3 probe elements [SVC-188]
MMP-9
  MMP-9 (83 kDa), fold change in fluorescent signal: 1.41
MMP-13 [2]
  MMP-13 (52 kDa), fold change in fluorescent signal: 1.80

## FAM-PEG2-G-P-K-G-L-K-G-K(MR)-NH2 [SVC-24]
MMP-9
  MMP-9 (39.0 kDa), fold change in fluorescence over background: 3.50
MMP-2
  MMP-2 (20.3 kDa), fold change in fluorescence over background: 1.98
MMP-12
  MMP-12 (20.3 kDa), fold change in fluorescence over background: 2.34
Thrombin
  Inflammatory mediators: Thrombin, fold change in fluorescence over background: 1.31
MMP-13 [1]
  MMP-13 (20.4 kDa), fold change in fluorescence over background: 9.30

## FAM-PEG2-P-Cha-G-M-W-G-K(MR)-NH2 [SVC-17]
MMP-9
  MMP-9 (39.0 kDa), fold change in fluorescence over background: 5.07
MMP-2
  MMP-2 (20.3 kDa), fold change in fluorescence over background: 2.59
MMP-12
  MMP-12 (20.3 kDa), fold change in fluorescence over background: 2.59
Thrombin
  Inflammatory mediators: Thrombin, fold change in fluorescence over background: 1.05
MMP-13 [1]
  MMP-13 (20.4 kDa), fold change in fluorescence over background: 6.5

## FAM-PEG2-P-F-G-L-K-βA-K(MR)-NH2 [AMF-23]
MMP-9
  MMP-9 (39.0 kDa), fold change in fluorescence over background: 2.50
MMP-2
  MMP-2 (20.3 kDa), fold change in fluorescence over background: 1.87
MMP-12
  MMP-12 (20.3 kDa), fold change in fluorescence over background: 3.03
Thrombin
  Inflammatory mediators: Thrombin, fold change in fluorescence over background: 0.89
MMP-13 [1]
  MMP-13 (20.4 kDa), fold change in fluorescence over background: 6.41

## FAM-PEG2-P-F-G-M-K-βA-K(MR)-NH2 [SVC-16]
MMP-9
  MMP-9 (39.0 kDa), fold change in fluorescence over background: 5.21
MMP-2
  MMP-2 (20.3 kDa), fold change in fluorescence over background: 3.11
MMP-12
  MMP-12 (20.3 kDa), fold change in fluorescence over background: 1.88
Thrombin
  Inflammatory mediators: Thrombin, fold change in fluorescence over background: 0.99
MMP-13 [1]
  MMP-13 (20.4 kDa), fold change in fluorescence over background: 13.57

## FAM-PEG2-P-Cha-G-M-F-G-K(MR)-NH2 [SVC-15]
MMP-9
  MMP-9 (39.0 kDa), fold change in fluorescence over background: 5.89
MMP-2
  MMP-2 (20.3 kDa), fold change in fluorescence over background: 3.27
MMP-12
  MMP-12 (20.3 kDa), fold change in fluorescence over background: 2.45
Thrombin
  Inflammatory mediators: Thrombin, fold change in fluorescence over background: 0.94
MMP-13 [1]
  MMP-13 (20.4 kDa), fold change in fluorescence over background: 11.75

## FAM-PEG2-P-F-G-Nle-K-βA-K(MR)-K-K-PEG2-PEG2-NH2 [AMF-92]
MMP-9
  MMP-9 (83 kDa), fold change in fluorescent signal: 4.75
MMP-13 [2]
  MMP-13 (52 kDa), fold change in fluorescent signal: 19.30

## FAM-PEG2-P-Cha-G-M-K-βA-K(MR)-NH2 [SVC-20]
MMP-9
  MMP-9 (39.0 kDa), fold change in fluorescence over background: 9.61
MMP-2
  MMP-2 (20.3 kDa), fold change in fluorescence over background: 5.22
MMP-12
  MMP-12 (20.3 kDa), fold change in fluorescence over background: 3.21
Thrombin
  Inflammatory mediators: Thrombin, fold change in fluorescence over background: 1.00
MMP-13 [1]
  MMP-13 (20.4 kDa), fold change in fluorescence over background: 15.9

## FAM-PEG2-P-Cha-G-M-Y(Me)-G-K(MR)-NH2 [SVC-18]
MMP-9
  MMP-9 (39.0 kDa), fold change in fluorescence over background: 4.94
MMP-2
  MMP-2 (20.3 kDa), fold change in fluorescence over background: 2.54
MMP-12
  MMP-12 (20.3 kDa), fold change in fluorescence over background: 2.15
Thrombin
  Inflammatory mediators: Thrombin, fold change in fluorescence over background: 0.97
MMP-13 [1]
  MMP-13 (20.4 kDa), fold change in fluorescence over background: 10.04

## MR-K(Ac)-PEG2-GPKGLKG-K(FAM)-PEG2-k-PEG2-k-PEG2-k-NH2 [AMF-111]
MMP-9
  MMP-9 (83 kDa), fold change in fluorescent signal: 3.66
MMP-13 [2]
  MMP-13 (52 kDa), fold change in fluorescent signal: 10.57

## FAM-PEG2-P-Cha-G-M-Y-G-K(MR)-NH2 [SVC-19]
MMP-9
  MMP-9 (39.0 kDa), fold change in fluorescence over background: 6.90
MMP-2
  MMP-2 (20.3 kDa), fold change in fluorescence over background: 4.07
MMP-12
  MMP-12 (20.3 kDa), fold change in fluorescence over background: 2.87
Thrombin
  Inflammatory mediators: Thrombin, fold change in fluorescence over background: 1.04
MMP-13 [1]
  MMP-13 (20.4 kDa), fold change in fluorescence over background: 11.26

## FAM-Ahx-G-P-K-G-L-K-G-3 probe elements ({5FAM-Ahx}-GPKGLKG; also: three probe elements on a scaffold) [TWB140]
MMP-9
  MMP-9 (83 kDa), fold change in fluorescent signal: 1.06
MMP-13 [2]
  MMP-13 (52 kDa), fold change in fluorescent signal: 1.47

## FAM-PEG2-P-Cha-G-M-K-G-K(MR)-NH2 [SVC-22]
MMP-9
  MMP-9 (39.0 kDa), fold change in fluorescence over background: 8.21
MMP-2
  MMP-2 (20.3 kDa), fold change in fluorescence over background: 4.24
MMP-12
  MMP-12 (20.3 kDa), fold change in fluorescence over background: 2.61
Thrombin
  Inflammatory mediators: Thrombin, fold change in fluorescence over background: 1.02
MMP-13 [1]
  MMP-13 (20.4 kDa), fold change in fluorescence over background: 14.88

## FAM-PEG2-G-P-K-G-Nle-K-G-K(MR)-NH2 [SVC-27]
MMP-9
  MMP-9 (39.0 kDa), fold change in fluorescence over background: 4.53
MMP-2
  MMP-2 (20.3 kDa), fold change in fluorescence over background: 2.70
MMP-12
  MMP-12 (20.3 kDa), fold change in fluorescence over background: 1.46
Thrombin
  Inflammatory mediators: Thrombin, fold change in fluorescence over background: 1.48
MMP-13 [1]
  MMP-13 (20.4 kDa), fold change in fluorescence over background: 11.75

## FAM-PEG2-P-Cha-G-M-H-G-K(MR)-NH2 [SVC-21]
MMP-9
  MMP-9 (39.0 kDa), fold change in fluorescence over background: 7.53
MMP-2
  MMP-2 (20.3 kDa), fold change in fluorescence over background: 4.01
MMP-12
  MMP-12 (20.3 kDa), fold change in fluorescence over background: 3.05
Thrombin
  Inflammatory mediators: Thrombin, fold change in fluorescence over background: 0.97
MMP-13 [1]
  MMP-13 (20.4 kDa), fold change in fluorescence over background: 12.93

## FAM-K(FAM)-PEG2-PFGNleKβA-PEG2-k-PEG2-k-3 probe elements [SVC-189]
MMP-9
  MMP-9 (83 kDa), fold change in fluorescent signal: 2.92
MMP-13 [2]
  MMP-13 (52 kDa), fold change in fluorescent signal: 7.11

## FAM-PEG2-P-F-G-Nle-K-βA-K(MR)-NH2 [AMF-25]
MMP-9
  MMP-9 (39.0 kDa), fold change in fluorescence over background: 2.02
MMP-2
  MMP-2 (20.3 kDa), fold change in fluorescence over background: 1.88
MMP-12
  MMP-12 (20.3 kDa), fold change in fluorescence over background: 1.53
Thrombin
  Inflammatory mediators: Thrombin, fold change in fluorescence over background: 0.96
MMP-13 [1]
  MMP-13 (20.4 kDa), fold change in fluorescence over background: 5.27

## FAM-PEG2-P-F-G-I-K-βA-K(MR)-NH2 [AMF-24]
MMP-9
  MMP-9 (39.0 kDa), fold change in fluorescence over background: 2.29
MMP-2
  MMP-2 (20.3 kDa), fold change in fluorescence over background: 1.59
MMP-12
  MMP-12 (20.3 kDa), fold change in fluorescence over background: 1.65
Thrombin
  Inflammatory mediators: Thrombin, fold change in fluorescence over background: 0.96
MMP-13 [1]
  MMP-13 (20.4 kDa), fold change in fluorescence over background: 5.05
